These results are taken from patent US20190167676A1, “METHODS FOR IMPROVING RESISTANCE TO SKELETAL MUSCLE FATIGUE” (Cytokinetics, Inc., priority 2012, published 2019).

Assay [1] deals with rat EDL muscle. Briefly: Isometric tension and relaxation time in rat EDL muscle in situ. The assay is classed as in vivo. The method, then:
As with the in vitro FDB muscle studies, another predominately fast muscle fiber type, the extensor digitorum long us (EDL), was stimulated toward contractions in unconscious rats in situ. In these isometric muscle studies (measuring force at fixed length), force, time to peak contraction, time to half relaxation after cessation of stimulation (RT1/2) and baseline tension were determined. These studies have the advantage that the nerve and muscle pair were intact and had typical blood flow to the muscle under investigation.
Rats were placed under anesthesia using isoflurane and the skin around the experimental leg was removed. The distal end of the EDL muscle and its associated tendon were then isolated. The rat was then placed on the platform of an Aurora in-situ muscle analysis rig (806C), maintained at body temperature via a circulating water system. The knee was immobilized in a clamp between two sharpened screws and the distal tendon cut and tied to the arm of a force transducer (Aurora Scientific, Ontario, Canada) using a silk suture. The muscle was stimulated directly via the peroneal nerve. […] Muscle contractile properties were assessed by applying an electrical current to the nerve and recording the force generated by the muscle via a servomotor. […]

In assay [2] the test system is rat plantarflexor muscles. Description: Rat plantar flexor force and power in situ. The assay is classed as in vivo. The source says:
Rats were placed under anesthesia using isoflurane and the sciatic nerve of the experimental leg exposed. The rat was then placed on the platform of an Aurora in-situ muscle analysis rig (806C), maintained at body temperature via a circulating water system. The knee was immobilized in a clamp between two sharpened screws and the foot attached securely to the footplate of a force transducer (Aurora Scientific, Ontario, Canada) using laboratory tape. The muscle was stimulated directly via the sciatic nerve. For isolation of the nerve, a 1 cm incision was made at the upper thigh and the overlying muscle was dissected to expose an approximate 5 mm stretch of the sciatic nerve. This was then dissected free of surrounding connective tissue and a pair of stainless steel needle electrodes (0.10 mm) were hooked around the exposed nerve. The peroneal branch was severed to remove innervation to the plantar-extensor muscle groups. Muscle contractile properties were assessed by applying an electrical current to the nerve and recording the force generated by the muscle via a servomotor. Isokinetic contractile properties were assessed as force generated during a pre-programmed movement of the footplate. Footplate movements were 0.7 radians in size ([…]).
Solutions of Compound A (50% PEG300/10% EtOH/40% cavitron formulation) were administered via a femoral vein catheter as a single slow bolus over a 2 min period, with a maximal dosage volume of 5 ml/Kg. During the experiment, blood was drawn via the tail vein for compound concentration analysis. At the end of each assay, the length and weight of the muscle was recorded, and measured force normalized to the mass of the muscle (N/g).
Compound A increased force generation throughout the curve to generate a total of 55% more work over the 300 second period, while maintaining a similar profile to that of the vehicle.
The same protocol was repeated with a second skeletal muscle troponin activator, 1-((1R)-1-methylpropyl)-6-chloro-7-pyrazolylimidazo[4,5-b]pyridin-2-ol (Compound B). Compound B and analogous skeletal muscle troponin activators are disclosed in U.S. Pat. No. 7,989,469. […] 0.7 radian displacement and stimulation frequency calculated to provide 50% of maximum isokinetic tension. Compound B maintained force generation throughout the curve, at almost 50% of vehicle stimulation frequency, to generate the same total work over the 300 second period, while maintaining a similar profile to that of the vehicle.

The test system of assay [3] is healthy rats. Briefly: Rotarod running assay. Format: in vivo, rat. Particulars: for Run time (s) mean ± SEM: 30 minutes prior. The method, then: Female Sprague Dawley rats (210-260 g) were obtained from Charles River Laboratories and acclimated in the test facility for a minimum of six days prior to the start of the study. All rats were trained the day prior to compound administration. Training consisted of placing the rats on the rotating drum (rod), starting at a low constant speed (10 RPM). The rats were acclimated to walk on the drum for 5 minutes before resting. A second training session of an increasing speed from 14-16 RPM was initiated after all rats in the experimental group had finished the first training session. […] On the day of the experiment animals were dosed thirty minutes prior to start of test. The test began with a 5 minute primer session, whereby animals were run at an increasing speed from 14-16 RPM over 5 minutes. Rats were then run at a constantly accelerating rate from 12 RPM to 25 RPM over the course of 10 minutes. […] Time to fall was recorded, with the test being terminated at 900 seconds. Compound A was administered via oral gavage 30 minutes prior to assessment. Each dose was formulated as a suspension containing 0.2% Tween 80, 0.5% HPMC and water. Dose volume was 5 mL/kg. Vehicle (0.2% Tween 80, 0.5% HPMC and water) was administered similarly. Control treatments were chosen based on association with amelioration of central fatigue (caffeine, Davis 2003), muscular fatigue (creatine, Boyadjiev, 2007) and dual central/muscular fatigue (phosphoserine, […] 1976).
For orientation: In the rotarod test animals must keep their balance on a rotating rod.

For assay [4], the target named is T1, myofibrils from slow skeletal muscle (Homo sapiens, UniProt P63316).
T1 construct: from tissue; host or cells: slow skeletal muscle myofibrils
Particulars: cited from earlier work.

For `C#Cc1cnc2nc(O)n(C(CC)CC)c2n1` [Compound A, 6-ethynyl-1-(pentan-3-yl)-1H-imidazo[4,5-b]pyrazin-2-ol], in assay [1] (10 mg/kg), the “increase in relaxation time” value is on record as “approximately 3.5 fold”. In assay [1] (femoral artery catheter, dose escalation up to 10 mg/Kg), the “sub-maximal and maximal force in situ” value is “increase in sub-maximal force without increasing maximal force”. The “isokinetic force frequency relationship” value in assay [2] (at 3.1 radians/s) is given as “increased in the submaximal range in a dose dependent manner”. For the same molecule, the force-velocity relationship result in assay [2] (at 30 Hz) is “increased across all velocities in a dose and velocity dependent manner”. For the same molecule, the power output entry in assay [2] (corresponding to force velocities at 30 Hz) is recorded as “dose dependent increase”. Moreover, the “isometric force frequency relationship” value in assay [2] (in situ) is on record as “increased in the submaximal range in a dose dependent manner”. For the same molecule, the “more total work over the 300 second period” value in assay [2] (isokinetic fatigue protocol, 1 flexion per second at 3.1 radians/s, 30 Hz, vs vehicle) is given as 55%. The “Run time (s) mean ± SEM” value was found to be 301 ± 36 s in assay [3] (0.3 mg/kg oral gavage), 334 ± 29 s in assay [3] (1 mg/kg oral gavage) and 389 ± 65 s in assay [3] (3 mg/kg oral gavage). Besides, the “change of running time” value in assay [3] (3 mg/kg, maximum dose tested) is given as “more than a doubling of running time”. For the same molecule, the effect in myofibrils result in assay [4] is listed as “little or no effect”.
